The supplement of paper PMC10307832

Key:
Test in all cases: relative viability (nuclei count vs DMSO), 5 days (fraction); higher = more cells survive
[1] = tested on: NCI-H2347
Summary of the method: (§1)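 Relative viability equals treated-well nuclei counts divided by vehicle-well nuclei counts. Counts came from 4× images of lung cancer cell lines grown in 1536-well plates for 5 days after pin-tool dosing on the day after seeding. Dosing used one drug alone or a fixed anchor-drug dose plus five library-drug doses (not always all listed) in √10 steps, and values are medians of duplicate plates.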

[2] = tested on: NCI-H3122
Summary of the method: as §1

[3] = tested on: NCI-H596
Summary of the method: as §1

[4] = tested on: RERF-LC-KJ
Summary of the method: as §1

[5] = tested on: NCI-H1792
Summary of the method: as §1

[6] = tested on: NCI-H520
Summary of the method: as §1

[7] = tested on: NCI-H1563
Summary of the method: as §1

[8] = tested on: NCI-H1355
Summary of the method: as §1

[9] = tested on: PC-14
Summary of the method: as §1

[10] = tested on: LXF-289
Summary of the method: as §1

[11] = tested on: SK-MES-1
Summary of the method: as §1

[12] = tested on: NCI-H661
Summary of the method: as §1

[13] = tested on: NCI-H1651
Summary of the method: as §1

[14] = tested on: LCLC-103H
Summary of the method: as §1

[15] = tested on: NCI-H441
Summary of the method: as §1

[16] = tested on: NCI-H460
Summary of the method: as §1

[17] = tested on: NCI-H1915
Summary of the method: as §1

[18] = tested on: NCI-H1755
Summary of the method: as §1

[19] = tested on: NCI-H727
Summary of the method: as §1

[20] = tested on: NCI-H322M
Summary of the method: as §1

Nc1ccn([C@@H]2O[C@H](CO)[C@@H](O)[C@@H]2O)c(=O)n1 [Cytarabine] + C[C@@H](Oc1cc(-c2cnn(C3CCNCC3)c2)cnc1N)c1c(Cl)ccc(F)c1Cl [Crizotinib] (partner 1 µM)
relative viability ([1]; first compound 0.005 µM): 0.827
relative viability ([1]; first compound 0.01581 µM): 0.719
relative viability ([1]; first compound 0.05 µM): 0.573
relative viability ([1]; first compound 0.1581 µM): 0.642
relative viability ([1]; first compound 0.5 µM): 0.467
relative viability ([2]; first compound 0.005 µM): 0.264
relative viability ([2]; first compound 0.01581 µM): 0.239
relative viability ([2]; first compound 0.05 µM): 0.244
relative viability ([2]; first compound 0.1581 µM): 0.192
relative viability ([2]; first compound 0.5 µM): 0.204
relative viability ([3]; first compound 0.005 µM): 0.889
relative viability ([3]; first compound 0.01581 µM): 0.961
relative viability ([3]; first compound 0.05 µM): 0.786
relative viability ([3]; first compound 0.1581 µM): 0.614
relative viability ([3]; first compound 0.5 µM): 0.743
relative viability ([4]; first compound 0.005 µM): 0.853
relative viability ([4]; first compound 0.01581 µM): 0.845
relative viability ([4]; first compound 0.05 µM): 0.759
relative viability ([4]; first compound 0.1581 µM): 0.502
relative viability ([4]; first compound 0.5 µM): 0.4
relative viability ([5]; first compound 0.005 µM): 0.624
relative viability ([5]; first compound 0.01581 µM): 0.882
relative viability ([5]; first compound 0.05 µM): 0.861
relative viability ([5]; first compound 0.1581 µM): 0.53
relative viability ([5]; first compound 0.5 µM): 0.465
relative viability ([6]; first compound 0.005 µM): 0.56
relative viability ([6]; first compound 0.01581 µM): 0.758
relative viability ([6]; first compound 0.05 µM): 0.831
relative viability ([6]; first compound 0.1581 µM): 0.56
relative viability ([6]; first compound 0.5 µM): 0.469
relative viability ([7]; first compound 0.005 µM): 0.806
relative viability ([7]; first compound 0.01581 µM): 0.916
relative viability ([7]; first compound 0.05 µM): 0.852
relative viability ([7]; first compound 0.1581 µM): 0.809
relative viability ([7]; first compound 0.5 µM): 0.606
relative viability ([8]; first compound 0.005 µM): 0.998
relative viability ([8]; first compound 0.01581 µM): 1.03
relative viability ([8]; first compound 0.05 µM): 0.973
relative viability ([8]; first compound 0.1581 µM): 0.46
relative viability ([8]; first compound 0.5 µM): 0.399
relative viability ([9]; first compound 0.005 µM): 0.805
relative viability ([9]; first compound 0.01581 µM): 0.84
relative viability ([9]; first compound 0.05 µM): 0.778
relative viability ([9]; first compound 0.1581 µM): 0.439
relative viability ([9]; first compound 0.5 µM): 0.2
relative viability ([10]; first compound 0.005 µM): 0.745
relative viability ([10]; first compound 0.01581 µM): 0.78
relative viability ([10]; first compound 0.05 µM): 0.663
relative viability ([10]; first compound 0.1581 µM): 0.339
relative viability ([10]; first compound 0.5 µM): 0.389
relative viability ([11]; first compound 0.005 µM): 0.706
relative viability ([11]; first compound 0.01581 µM): 0.741
relative viability ([11]; first compound 0.05 µM): 0.367
relative viability ([11]; first compound 0.1581 µM): 0.274
relative viability ([11]; first compound 0.5 µM): 0.219
relative viability ([12]; first compound 0.005 µM): 0.963
relative viability ([12]; first compound 0.01581 µM): 1.15
relative viability ([12]; first compound 0.1581 µM): 0.975
relative viability ([12]; first compound 0.5 µM): 0.632
relative viability ([13]; first compound 0.005 µM): 0.869
relative viability ([13]; first compound 0.01581 µM): 0.904
relative viability ([13]; first compound 0.05 µM): 0.834
relative viability ([13]; first compound 0.1581 µM): 0.584
relative viability ([13]; first compound 0.5 µM): 0.549
relative viability ([14]; first compound 0.005 µM): 0.942
relative viability ([14]; first compound 0.01581 µM): 1.03
relative viability ([14]; first compound 0.05 µM): 1.07
relative viability ([14]; first compound 0.1581 µM): 1.03
relative viability ([14]; first compound 0.5 µM): 0.977
relative viability ([15]; first compound 0.005 µM): 0.776
relative viability ([15]; first compound 0.01581 µM): 0.824
relative viability ([15]; first compound 0.05 µM): 0.598
relative viability ([15]; first compound 0.1581 µM): 0.199
relative viability ([15]; first compound 0.5 µM): 0.165
relative viability ([16]; first compound 0.005 µM): 0.77
relative viability ([16]; first compound 0.01581 µM): 0.851
relative viability ([16]; first compound 0.05 µM): 0.144
relative viability ([16]; first compound 0.1581 µM): 0.0229
relative viability ([16]; first compound 0.5 µM): 0.0238
relative viability ([17]; first compound 0.005 µM): 0.888
relative viability ([17]; first compound 0.01581 µM): 0.882
relative viability ([17]; first compound 0.05 µM): 0.686
relative viability ([17]; first compound 0.1581 µM): 0.393
relative viability ([17]; first compound 0.5 µM): 0.333
relative viability ([18]; first compound 0.005 µM): 0.788
relative viability ([18]; first compound 0.01581 µM): 0.761
relative viability ([18]; first compound 0.05 µM): 0.565
relative viability ([18]; first compound 0.1581 µM): 0.265
relative viability ([18]; first compound 0.5 µM): 0.286
relative viability ([19]; first compound 0.005 µM): 0.724
relative viability ([19]; first compound 0.01581 µM): 0.579
relative viability ([19]; first compound 0.05 µM): 0.636
relative viability ([19]; first compound 0.1581 µM): 0.359
relative viability ([19]; first compound 0.5 µM): 0.3
relative viability ([20]; first compound 0.005 µM): 0.858
relative viability ([20]; first compound 0.01581 µM): 0.676
relative viability ([20]; first compound 0.05 µM): 0.534
relative viability ([20]; first compound 0.1581 µM): 0.366
relative viability ([20]; first compound 0.5 µM): 0.318
